The values below are quoted from earlier work in patent publication US20120148512A1, “Method for Increasing the Sun Protection Factor of a Cosmetic and/or Dermatological Preparation” (BASF SE, priority 2006, published 2012).

With `COc1ccc(C(=O)CC(=O)c2ccc(C(C)(C)C)cc2)cc1` [BMDBM, 4-(tert-butyl)-4′-methoxydibenzoylmethane], the photostability result (filter substance on its own) is listed as “not photostable”.
For the compound `O=S(=O)(O)c1ccc2nc(-c3ccccc3)[nH]c2c1` [2-phenylbenzimidazole-5-sulfonic acid], the “absorption retained in the absorption maximum” value (following sun-simulated irradiation (5 and 10 MED)) is “more than 90%”.
